Counter-ions that a name gives are not always drawn. Marks after values point to notes of the source that are not given here.
Assays:
[1] = Effect of cysteamine compound on small-fat-tail sheep (Example 6); type: in vivo
Text: In the following example, the test animals were sheep (small-fat-tail sheep). In total, 40 heads of small-fat-tail sheep with the average weight of 26.5 kg were randomly divided into Control group (20) and Cysteamine group (20). The control group was fed with basal diet only, while the Cysteamine group was fed a diet that included 900 g cysteamine HCl per tonnage of diet. The standard basal diet of the farm was employed for this trial.

[2] = Daily weight gain and feed conversion rate of beef cattle (Example 5); type: in vivo, beef cattle (Ximenta'er hybridizing beef cattle)
Procedure: In the following example, the test animals were beef cattle (Ximenta'er hybridizing beef cattle). The experiment was performed at the Hebei Hengshui Geling Beef Cattle Raising Farm dur the period from Oct. 10 to Dec. 21, 2002. In total, 64 heads of around 350 kg Ximenta'er hybridizing beef cattle were selected and separated into 4 groups randomly according to the principle of equalizing age, weight, grace, fur/hair condition, etc. Each group had 16 heads of beef cattle. The Control Group, Test Group I, II & III were fed a composition comprising 0, 1.5, 3, 6 g/head/day of cysteamine HCl, respectively. As noted in Tables 8, 9, and 10 below, adding a cysteamine compound to the basal diet of beef cattle can increase daily weight gain.

[3] = Effect of cysteamine compound on crossbreed sheep (Example 6); type: in vivo
[4] = Efficacy of cysteamine hydrochloride on sow and their weaning piglets performance (Example 9); type: in vivo, swine (crossbred Yolkshire and Lanrace sows); conditions: for Total of pigs born: 10 sows from 84 days gestation; for Av. of milk yield, L/d: calculated from average daily gain of piglets × 4 × no of piglets in each litter; for Total number of piglets at weaning: weaned at 21 days
Text: All sows used in the experiment were crossbred (Yolkshire and Lanrace) selected from the 3rd and the 4^Th (ratio 4:6) pregnancy. Thirty sows (84 days gestation) were equally allocated into three treatments and each treatment of sows were divided into 10 replications with each sow per replication.
Cysteamine Hydrochloride was included to sow feeds at 135 ppm or 190 ppm. The diets were fed in mash form, water was allowed ad libitum. Litter size, litter weights, number of piglets born alive and weaned were recorded. Morbidity, incidence of diarrhea and mortality rates were recorded. Piglet's uniformity was accounted as percentage units that fell into two times of standard deviation based on average weaning live weight. The piglets from each sow were weaned at 21 days of age. On day 109 of gestation, sows were moved to farrowing units and were weight after farrowing and also weighed again after lactation. Back fat losses were measured every weeks during lactation period by using Renco Lean-Meter (Ultrasound for Ultra-profits, Renco Corporation, Minnesota, 55401, USA). Sows were fed about 2 kg/day during 16-84 days, 3 kg/day until farrowing and fed ad libitum during lactation period.
All sows were housed in cages adjacent to the boar's area and serviced by artificial insemination twice at 18 hours interval with the checked quality semen of the same boar. After 1 week service, they were weighed and moved to individual gestation cages. Five days prior to the date of parturition, they were moved to the farrowing units for setting in and staying till piglets weaning. After piglets weaning each sow was moved again to the service area.
All sows and piglets were subject to the usual vaccination program, antiparasitic treatment, iron injection and tail docking for piglets. An individual treatment was done if a disease or injury was developed during the trial, under the authority of the veterinary in charge of the farm animal health.

[5] = 900 g cysteamine HCl per tonnage of diet, after 35 days
[6] = 900 g/tonnage, 35 days, 20 head
[7] = 900 g/tonnage, 35 days, vs control
[8] = feed consumed, 900 g/tonnage, 35 days, 20 head
[9] = T2: 0.0135 (135 ppm in sow feed)
[10] = T3: 0.019 (190 ppm in sow feed)

With NCCS [Cysteamine Hydrochloride, cysteamine hydrochloride] the “amount of silage necessary in raising the sheep” value [1, 5] was “reduction”, the “weight (ADG) vs control” value [1, 5] was “statistically significant increase” and the “Daily weight gain (g/head/day)” value ([1]; 900 g/tonnage, 35 days) was 95.71 g/head/day. For the same compound, the “Final weight (kg/head)” value ([1]; 900 g/tonnage, 35 days) was 28.92 kg/head, the “Weight gain (kg/head)” value ([1]; 900 g/tonnage, 35 days) was 3.350 kg/head and the “Total feed consumption” value [1, 6] was 1019.38 kg. The “Daily weight gain: Improvement (%)” value [1, 7] was 30.9%, the “Silage: Improvement (%)” value [1, 7] was −16.22% and the “Weight gain: Improvement (%)” value [1, 7] was 30.9%. The “Concentrate” value [1, 8] was 245 kg, the “Hay” value [1, 8] was 350.00 kg and the “Silage” value [1, 8] was 424.38 kg. For the same compound, the daily weight gain ([2]; Test Group III: 6 g/head/day, p<0.05 vs Control, Test Group I & II) was 1.217 kg, the “Feed Conversion Rate (FCR): Concentrated feed” value ([2]; Test I: 1.5 g/head/day) was 3.54 and the “Feed Conversion Rate (FCR): Corn Silage” value ([2]; Test I: 1.5 g/head/day) was 14.14. The “Feed Conversion Rate (FCR): Raw Grass” value ([2]; Test I: 1.5 g/head/day) was 1.21, the “Final Wt.” value ([2]; Test I: 1.5 g/head/day) was 423.8 kg and the “Feed Conversion Rate (FCR): Concentrated feed” value ([2]; Test II: 3 g/head/day) was 3.70^a. The “Feed Conversion Rate (FCR): Corn Silage” value ([2]; Test II: 3 g/head/day) was 14.42^a, the “Feed Conversion Rate (FCR): Raw Grass” value ([2]; Test II: 3 g/head/day) was 1.27^a and the “Final Wt.” value ([2]; Test II: 3 g/head/day) was 420.5 kg. The “Feed Conversion Rate (FCR): Concentrated feed” value ([2]; Test III: 6 g/head/day) was 3.09^b, the “Feed Conversion Rate (FCR): Corn Silage” value ([2]; Test III: 6 g/head/day) was 12.87^b and the “Feed Conversion Rate (FCR): Raw Grass” value ([2]; Test III: 6 g/head/day) was 1.06^a. The “Final Wt.” value ([2]; Test III: 6 g/head/day) was 432.7 kg, the “amount of silage necessary in raising the sheep” value [3, 5] was “reduction” and the “weight (ADG) vs control” value [3, 5] was “statistically significant increase”. The “ADG (g/head/day)” value ([3]; 900 g/tonnage, 35 days) was 82.29 g/head/day, the “Final weight (kg/head)” value ([3]; 900 g/tonnage, 35 days) was 29.59 kg/head and the “Weight gain (kg/head)” value ([3]; 900 g/tonnage, 35 days) was 2.88 kg/head. For the same compound, the “Total feed consumption” value [3, 6] was 1001.2 kg, the “ADG: Improvement (%)” value [3, 7] was 46.2% and the “Silage: Improvement (%)” value [3, 7] was −5.14%. For the same compound, the “Weight gain: Improvement (%)” value [3, 7] was 46.2%, the “Concentrate” value [3, 8] was 245 kg and the “Hay” value [3, 8] was 350.0 kg. The “Silage” value [3, 8] was 406.2 kg, the “Av. birth weight of piglets, kg” value [4, 9] was 1.737^a kg and the “Av. daily feed intake of sow during lactation, kg” value [4, 9] was 5.88^a kg. The “Av. daily gain of piglets” value [4, 9] was 355 g, the “Av. feed intake per piglets” value [4, 9] was 179 g and the “Av. live weight of piglets at weaning” value [4, 9] was 7.45 kg. For the same compound, the “Av. number of piglets born alive per litter” value [4, 9] was 11.10, the “Av. of piglet born per litter” value [4, 9] was 11.60 and the “Av. overall weight loss of sow during lactation, kg” value [4, 9] was 14.25^b kg. The “Av. total birth weight of piglet per litter, kg” value [4, 9] was 19.10^a kg, the “Back fat loss of sow during lactation, mm: Overall” value [4, 9] was 0.867^b mm and the “Back fat loss of sow during lactation, mm: Week 1” value [4, 9] was 0.165^b mm. The “Back fat loss of sow during lactation, mm: Week 2” value [4, 9] was 0.588^b mm, the “Back fat loss of sow during lactation, mm: Week 3” value [4, 9] was 0.114^b mm and the “Number of piglet weaning per litter” value [4, 9] was 10.20. The “Survival rate of piglets at weaning, %” value [4, 9] was 91.90%, the “Total number of piglet born alive per litter” value [4, 9] was 111 and the “Total weight of piglets at weaning per litter, kg” value [4, 9] was 76.02^ab kg. For the same compound, the “Uniformity of live weight at weaning, %” value [4, 9] was 86.68^a %, the “Total of pigs born” value [4, 9] was 116 and the “Av. of milk yield, L/d” value [4, 9] was 14.48^ab L/d. The “Total number of piglets at weaning” value [4, 9] was 102, the “Av. birth weight of piglets, kg” value [4, 10] was 1.782^a kg and the “Av. daily feed intake of sow during lactation, kg” value [4, 10] was 6.07^a kg. For the same compound, the “Av. daily gain of piglets” value [4, 10] was 366 g, the “Av. feed intake per piglets” value [4, 10] was 183 g and the “Av. live weight of piglets at weaning” value [4, 10] was 7.68 kg. The “Av. number of piglets born alive per litter” value [4, 10] was 10.70, the “Av. of piglet born per litter” value [4, 10] was 11.50 and the “Av. overall weight loss of sow during lactation, kg” value [4, 10] was 13.58^b kg. For the same compound, the “Av. total birth weight of piglet per litter, kg” value [4, 10] was 18.88^a kg, the “Back fat loss of sow during lactation, mm: Overall” value [4, 10] was 0.829^b mm and the “Back fat loss of sow during lactation, mm: Week 1” value [4, 10] was 0.171^b mm. The “Back fat loss of sow during lactation, mm: Week 2” value [4, 10] was 0.548^b mm, the “Back fat loss of sow during lactation, mm: Week 3” value [4, 10] was 0.110^b mm and the “Number of piglet weaning per litter” value [4, 10] was 10.40. The “Survival rate of piglets at weaning, %” value [4, 10] was 97.20%, the “Total number of piglet born alive per litter” value [4, 10] was 107 and the “Total weight of piglets at weaning per litter, kg” value [4, 10] was 79.42^a kg. For the same compound, the “Uniformity of live weight at weaning, %” value [4, 10] was 86.95^a %, the “Total of pigs born” value [4, 10] was 115 and the “Av. of milk yield, L/d” value [4, 10] was 15.13^a L/d. The “Total number of piglets at weaning” value [4, 10] was 104.

From US20090258030A1, “Materials and Methods for Improving Livestock Productivity” (priority 2006, published 2009)
